Results published in ChEMBL document CHEMBL1201862, “PubChem BioAssay data set” (2004).
The source made the active and inactive calls.

Experiments:
[1] = molecular target: Kappa-type opioid receptor (Homo sapiens, UniProt P41145); experiment: SAR analysis of small molecule agonists of the kappa opioid receptor via a luminescent beta-arrestin assay - Set 2. [Related pubchem assays (depositor defined):AID1777, AID1785, AID1786, AID1966, AID2133, AID2136, AID2284, AID449737]; type: functional
[2] = molecular target: T1, Dual specificity protein phosphatase 3 (Homo sapiens, UniProt P51452); experiment: VHR1 inhibitor Ki determination, SAR follow-up, biochemical, colorimetric (AID 2004)
[3] = test system: Trypanosoma cruzi; experiment: growth inhibition of intracellular Trypanosoma cruzi, dose response, cell-based, plate reader, dry powder, set 3 (AID 493197); type: functional
[4] = molecular target: Cyclin-dependent kinase 5/CDK5 activator 1 (Homo sapiens, UniProt Q00535); experiment: CDK5/p35 kinase inhibitors, dose response, biochemical, cherry-picked samples, set 2 (AID 504545)
[5] = molecular target: Acyl-homoserine lactone acylase PvdQ (Pseudomonas aeruginosa (strain LESB58), UniProt Q9I194); experiment: P. aeruginosa PvdQ acylase inhibitors, dose response, biochemical, fluorescence, plate reader and imaging, cherry-picks (AID 493231)
[6] = molecular target: Melanin-concentrating hormone receptor 1 (Homo sapiens, UniProt Q99705); experiment: Late-stage fluorescence-based counterscreen for antagonists of the G-protein coupled receptor 7 (GPR7): cell-based dose response assay to identify antagonists of the melanin-concentrating hormone receptor 1 (MCHR1). [Related pubchem assays (depositor defined):AID1861, AID1880, AID1952, AID2148, AID2251, AID2257, AID485339]; type: functional;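 also: stimulated with 30 nM MCH peptide agonist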
[7] = molecular target: T2, Neuropeptides B/W receptor type 1 (Homo sapiens, UniProt P48145); experiment: GPR7 antagonist potency, late-stage follow-up, cell-based, fluorescence, dose response (AID 463251); type: functional
T2 sequence (P48145 whole entry): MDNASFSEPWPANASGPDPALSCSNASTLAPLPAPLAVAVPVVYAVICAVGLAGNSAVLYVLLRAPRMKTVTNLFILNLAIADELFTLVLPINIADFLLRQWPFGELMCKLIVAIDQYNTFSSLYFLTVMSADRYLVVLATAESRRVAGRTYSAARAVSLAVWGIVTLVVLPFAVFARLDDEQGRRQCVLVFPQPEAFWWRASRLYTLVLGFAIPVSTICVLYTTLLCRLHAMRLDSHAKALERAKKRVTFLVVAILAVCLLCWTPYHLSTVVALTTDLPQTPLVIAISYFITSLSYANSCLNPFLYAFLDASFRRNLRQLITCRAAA

[8] = molecular target: Intestinal-type alkaline phosphatase (Homo sapiens, UniProt P09923); experiment: Dose Response confirmation of uHTS hits from a small molecule inhibitors of human intestinal alkaline phosphatase via a luminescent assay. [Related pubchem assays (depositor defined):AID2544, AID2574]; type: functional
[9] = inhibitors of SNCA 5'UTR-driven reporter translation, confirmation, H4 neuroglioma cells, luminescence (AID 1988); type: functional, cell-based
[10] = inhibitors of firefly luciferase expression or activity, dose response, H4 neuroglioma cells, luminescence (AID 1990); type: functional, cell-based
[11] = molecular target: Voltage-dependent T-type calcium channel subunit alpha-1H (Homo sapiens, UniProt O95180); type: functional;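 also: channel activity triggered by adding a high calcium stimulation buffer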
[12] = molecular target: Induced myeloid leukemia cell differentiation protein Mcl-1 (Homo sapiens, UniProt Q07820); type: functional
[13] = molecular target: T3, Carboxy-terminal domain RNA polymerase II polypeptide A small phosphatase 1 (Homo sapiens, UniProt Q9GZU7); experiment: inhibitors of CTDSP1, concentration-response testing, biochemical assay, absorbance-based, actives from ultra-high-throughput screening (AID 540297); type: functional
T3 sequence (Q9GZU7 whole entry): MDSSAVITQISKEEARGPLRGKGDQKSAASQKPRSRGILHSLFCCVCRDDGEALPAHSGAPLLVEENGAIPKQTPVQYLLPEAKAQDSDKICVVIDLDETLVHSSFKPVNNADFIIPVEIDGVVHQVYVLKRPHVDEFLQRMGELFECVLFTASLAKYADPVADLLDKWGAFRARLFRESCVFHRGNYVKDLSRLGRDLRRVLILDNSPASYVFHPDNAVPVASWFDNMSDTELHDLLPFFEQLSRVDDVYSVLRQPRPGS

[14] = molecular target: T4, Tyrosine-protein phosphatase non-receptor type 7 (Homo sapiens, UniProt P35236); type: functional
T4 sequence (P35236 whole entry): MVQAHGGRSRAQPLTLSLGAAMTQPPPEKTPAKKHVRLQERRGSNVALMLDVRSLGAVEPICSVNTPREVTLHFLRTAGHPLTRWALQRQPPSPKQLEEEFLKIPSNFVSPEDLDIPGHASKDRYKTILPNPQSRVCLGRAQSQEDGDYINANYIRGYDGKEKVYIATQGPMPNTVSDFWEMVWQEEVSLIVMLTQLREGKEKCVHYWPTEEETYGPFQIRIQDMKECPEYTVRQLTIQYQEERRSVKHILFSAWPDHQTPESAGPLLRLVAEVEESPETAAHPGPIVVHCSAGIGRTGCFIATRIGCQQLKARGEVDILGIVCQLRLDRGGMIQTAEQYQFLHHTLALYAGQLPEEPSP

[15] = molecular target: Genome polyprotein (dengue virus type 2, UniProt P29990); experiment: Dengue-2 NS5 methyltransferase inhibitors, primary screen, biochemical, confirmation dose response (AID 588689); type: functional
[16] = molecular target: Glyceraldehyde-3-phosphate dehydrogenase (Homo sapiens, UniProt P04406)
[17] = molecular target: T5, Dual specificity protein phosphatase 6 (Rattus norvegicus, UniProt Q64346);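 also: in vitro confirmatory secondary MKP-3 assay designed to detect irreversible or slow-binding inhibitors; recombinant His-tagged rat MKP-3 acting on the substrate OMFP; inhibitor potency from reduced phosphatase rate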
T5 sequence (Q64346 whole entry): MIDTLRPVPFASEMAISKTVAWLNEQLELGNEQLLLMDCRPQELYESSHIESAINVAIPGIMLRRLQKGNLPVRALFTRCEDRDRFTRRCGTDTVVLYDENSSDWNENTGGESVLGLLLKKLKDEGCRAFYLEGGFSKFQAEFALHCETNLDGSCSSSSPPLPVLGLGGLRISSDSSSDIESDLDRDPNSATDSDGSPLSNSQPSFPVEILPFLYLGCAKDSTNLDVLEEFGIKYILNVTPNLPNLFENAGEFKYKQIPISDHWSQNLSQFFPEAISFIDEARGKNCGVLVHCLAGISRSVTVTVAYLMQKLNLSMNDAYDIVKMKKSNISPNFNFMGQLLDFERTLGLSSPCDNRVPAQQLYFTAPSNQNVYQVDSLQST

[18] = test system: HEK293; experiment: cells; type: functional, cell-based; conditions: Homo sapiens
[19] = molecular target: Scavenger receptor class B member 1 (Mus musculus, UniProt Q61009); experiment: inhibitors of SR-BI mediated HDL lipid uptake, dose response, ldlA[mSR-BI] cells, fluorescence, cherry pick (AID 493194); type: functional, cell-based;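 also: cellular uptake of fluorescent DiI-labeled HDL measured as cell fluorescence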
[20] = molecular target: Nucleotide-binding oligomerization domain-containing protein 2 (Homo sapiens, UniProt Q9HC29); experiment: NOD2 signaling inhibitors, cell-based, luminescence, uHTS, HEK293 (AID 1566); type: functional
[21] = test system: HEK293; experiment: NOD1 signaling inhibitors, primary screen, cell-based, luminescence, uHTS (AID 1578); type: functional; conditions: Homo sapiens
[22] = test system: HEK293; experiment: NOD2 signaling inhibitors in MDP-stimulated cells, cell-based, uHTS, luminescence (AID 2001); type: functional; conditions: Homo sapiens
[23] = test system: HEK293; experiment: cells; type: functional, cell-based; conditions: Homo sapiens; remark: listed apart in the source
[24] = molecular target: Paired box protein Pax-8 (Homo sapiens, UniProt Q06710); experiment: inhibitors of PAX8-driven TPO luciferase reporter, dose response, RMG-I cells, cherry-pick (AID 687027); type: functional, cell-based;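 also: luciferase reporter driven by Pax8 target thyroperoxidase promoter measured by SteadyGlo luminescence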
[25] = test system: HEK293; experiment: cells; type: functional, cell-based; conditions: Homo sapiens; remark: listed apart in the source
[26] = test system: INS1; experiment: beta cell apoptosis inhibitors, cytokine rescue, dose response, luminescence, retest (AID 449756); type: functional, cell-based; conditions: Rattus norvegicus;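 also: cell death triggered by IL-1 beta plus TNF-alpha plus IFN-gamma mixture; protective hits raise ATP signal compared with cytokine alone wells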
[27] = molecular target: T4, Tyrosine-protein phosphatase non-receptor type 7; experiment: SAR analysis of chemical inhibitors of HePTP using a Fluorescent assay - Set 2. [Related pubchem assays (depositor defined):AID1059, AID1077, AID1661, AID2085, AID521]; type: functional
[28] = molecular target: T1, Dual specificity protein phosphatase 3; experiment: SAR VHR1 Fluorescent Assay for In Vitro dose response studies Set 2. [Related pubchem assays (depositor defined):AID1654, AID1661, AID1878]; type: functional
[29] = molecular target: Collagenase 3 (Homo sapiens, UniProt P45452); experiment: MMP13 inhibition and MMP selectivity, late-stage follow-up, selectivity assay for MMP13 inhibitor project, biochemical, probe development, late stage results, panel member MMP-13 [IC50 Assay] (AID 2067)
[30] = molecular target: Neutrophil collagenase (Homo sapiens, UniProt P22894); experiment: MMP13 inhibition and MMP selectivity, late-stage follow-up, selectivity assay for MMP13 inhibitor project, biochemical, probe development, late stage results, panel member MMP-8 [IC50 Assay] (AID 2067)
[31] = Luminescence Cell-Based Dose Response HTS to Identify Activators of Luciferase Translation or Activity in H4-C Neuroglioblastoma Cells. [Related pubchem assays: 1829 (Project Summary), 1814 (Primary HTS)]; type: functional
[32] = Luminescence Cell-Based Dose Response HTS to Identify Activators of 5'UTR Stem-Loop Driven Prion Protein mRNA Translation in H4-C Neuroglioblastoma Cells. [Related pubchem assays: 1829 (Project Summary), 1814 (Primary HTS)]; type: functional
[33] = Luminescence Cell-Based Dose Response HTS to Identify Activators of Luciferase Translation or Activity in H4 […] Cells. [Related pubchem assays: 1829 (Project Summary), 1814 (Primary HTS)]; type: functional
[34] = Luminescence Cell-Based Dose Retest to Confirm Activators of 5'UTR Stem-Loop Driven Alpha-Synuclein mRNA Translation in H4 Neuroglioblastoma Cells. [Related pubchem assays (depositor defined):AID1813, AID1829]; type: functional
[35] = test system: H4; experiment: Luminescence Cell-Based Dose Response HTS to Identify Activators of 5'UTR Stem-Loop Driven Prion Protein mRNA Translation in H4 Neuroglioblastoma Cells. [Related pubchem assays: 1829 (Project Summary), 1814 (Primary HTS)]; type: functional; conditions: Homo sapiens
[36] = Luminescence Cell-Based Dose Confirmation HTS to Identify Activators of 5'UTR Stem-Loop Driven Alpha-Synuclein mRNA Translation in H4 Neuroglioblastoma Cells. [Related pubchem assays: 1829 (Project Summary), 1814 (Primary HTS)]; type: functional

T1 sequence (P51452 whole entry): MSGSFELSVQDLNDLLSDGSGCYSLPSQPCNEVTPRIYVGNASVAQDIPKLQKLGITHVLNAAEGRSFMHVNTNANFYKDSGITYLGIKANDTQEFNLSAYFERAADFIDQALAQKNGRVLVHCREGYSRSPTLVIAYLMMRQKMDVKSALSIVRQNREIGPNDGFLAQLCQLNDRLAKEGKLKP
Neutrophil collagenase, sequence (P22894 whole entry): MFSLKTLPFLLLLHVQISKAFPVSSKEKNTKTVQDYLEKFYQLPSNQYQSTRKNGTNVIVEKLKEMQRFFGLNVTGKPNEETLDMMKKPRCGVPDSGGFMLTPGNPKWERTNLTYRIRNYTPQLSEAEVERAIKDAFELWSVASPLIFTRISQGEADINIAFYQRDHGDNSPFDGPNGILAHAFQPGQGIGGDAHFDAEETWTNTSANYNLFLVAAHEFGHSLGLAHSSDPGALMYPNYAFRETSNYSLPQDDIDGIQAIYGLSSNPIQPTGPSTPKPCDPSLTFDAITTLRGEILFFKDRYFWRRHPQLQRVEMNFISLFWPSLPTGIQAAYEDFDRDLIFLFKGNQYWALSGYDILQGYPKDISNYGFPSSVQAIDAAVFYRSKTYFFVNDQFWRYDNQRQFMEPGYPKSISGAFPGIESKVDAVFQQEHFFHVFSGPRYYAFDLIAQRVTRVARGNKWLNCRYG
Scavenger receptor class B member 1, sequence (Q61009 whole entry, the tested form may be a part): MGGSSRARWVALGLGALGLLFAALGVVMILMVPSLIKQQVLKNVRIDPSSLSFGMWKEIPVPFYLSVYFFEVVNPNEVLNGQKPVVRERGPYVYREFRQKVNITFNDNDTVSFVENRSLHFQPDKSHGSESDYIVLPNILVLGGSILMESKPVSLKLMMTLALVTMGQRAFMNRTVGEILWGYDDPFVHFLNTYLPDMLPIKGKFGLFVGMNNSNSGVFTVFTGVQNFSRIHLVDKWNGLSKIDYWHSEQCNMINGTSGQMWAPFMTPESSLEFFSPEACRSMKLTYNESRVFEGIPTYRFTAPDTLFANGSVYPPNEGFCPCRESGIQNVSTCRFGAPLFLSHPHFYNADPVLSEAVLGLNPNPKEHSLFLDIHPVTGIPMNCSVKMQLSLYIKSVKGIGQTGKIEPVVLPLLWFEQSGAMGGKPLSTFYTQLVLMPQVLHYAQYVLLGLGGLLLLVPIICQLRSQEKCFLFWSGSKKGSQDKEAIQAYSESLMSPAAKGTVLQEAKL
Cyclin-dependent kinase 5/CDK5 activator 1, sequence (Q00535 whole entry): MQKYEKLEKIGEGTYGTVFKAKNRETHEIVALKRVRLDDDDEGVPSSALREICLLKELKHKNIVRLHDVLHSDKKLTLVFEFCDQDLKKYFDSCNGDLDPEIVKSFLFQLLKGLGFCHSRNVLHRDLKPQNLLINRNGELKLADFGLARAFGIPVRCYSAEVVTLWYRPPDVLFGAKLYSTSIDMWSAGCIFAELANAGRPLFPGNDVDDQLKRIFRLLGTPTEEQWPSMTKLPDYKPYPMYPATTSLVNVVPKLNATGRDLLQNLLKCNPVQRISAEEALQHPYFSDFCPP
Cyclin-dependent kinase 5/CDK5 activator 1, sequence (Q15078 whole entry, further chain): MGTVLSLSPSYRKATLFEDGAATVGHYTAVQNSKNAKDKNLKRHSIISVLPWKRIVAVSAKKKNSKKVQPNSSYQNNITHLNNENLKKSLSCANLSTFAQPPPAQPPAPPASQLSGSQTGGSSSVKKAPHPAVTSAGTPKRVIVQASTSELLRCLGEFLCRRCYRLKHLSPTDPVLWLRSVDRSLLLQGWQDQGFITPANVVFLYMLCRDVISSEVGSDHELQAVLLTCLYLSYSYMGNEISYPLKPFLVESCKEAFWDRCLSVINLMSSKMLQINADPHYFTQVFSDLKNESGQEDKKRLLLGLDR
Paired box protein Pax-8, sequence (Q06710 whole entry): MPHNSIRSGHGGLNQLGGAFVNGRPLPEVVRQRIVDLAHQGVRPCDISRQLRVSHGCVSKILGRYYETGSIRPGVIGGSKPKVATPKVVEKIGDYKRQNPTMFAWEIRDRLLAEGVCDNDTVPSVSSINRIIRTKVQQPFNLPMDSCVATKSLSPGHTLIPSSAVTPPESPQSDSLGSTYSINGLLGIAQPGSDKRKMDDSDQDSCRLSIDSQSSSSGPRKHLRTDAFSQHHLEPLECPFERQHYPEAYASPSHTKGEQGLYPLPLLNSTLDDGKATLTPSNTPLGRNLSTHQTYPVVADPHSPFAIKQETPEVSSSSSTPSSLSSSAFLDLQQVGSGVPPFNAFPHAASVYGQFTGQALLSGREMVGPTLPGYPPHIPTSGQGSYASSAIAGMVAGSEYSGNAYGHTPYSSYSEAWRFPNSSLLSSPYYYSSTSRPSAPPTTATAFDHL
Voltage-dependent T-type calcium channel subunit alpha-1H, sequence (O95180 whole entry): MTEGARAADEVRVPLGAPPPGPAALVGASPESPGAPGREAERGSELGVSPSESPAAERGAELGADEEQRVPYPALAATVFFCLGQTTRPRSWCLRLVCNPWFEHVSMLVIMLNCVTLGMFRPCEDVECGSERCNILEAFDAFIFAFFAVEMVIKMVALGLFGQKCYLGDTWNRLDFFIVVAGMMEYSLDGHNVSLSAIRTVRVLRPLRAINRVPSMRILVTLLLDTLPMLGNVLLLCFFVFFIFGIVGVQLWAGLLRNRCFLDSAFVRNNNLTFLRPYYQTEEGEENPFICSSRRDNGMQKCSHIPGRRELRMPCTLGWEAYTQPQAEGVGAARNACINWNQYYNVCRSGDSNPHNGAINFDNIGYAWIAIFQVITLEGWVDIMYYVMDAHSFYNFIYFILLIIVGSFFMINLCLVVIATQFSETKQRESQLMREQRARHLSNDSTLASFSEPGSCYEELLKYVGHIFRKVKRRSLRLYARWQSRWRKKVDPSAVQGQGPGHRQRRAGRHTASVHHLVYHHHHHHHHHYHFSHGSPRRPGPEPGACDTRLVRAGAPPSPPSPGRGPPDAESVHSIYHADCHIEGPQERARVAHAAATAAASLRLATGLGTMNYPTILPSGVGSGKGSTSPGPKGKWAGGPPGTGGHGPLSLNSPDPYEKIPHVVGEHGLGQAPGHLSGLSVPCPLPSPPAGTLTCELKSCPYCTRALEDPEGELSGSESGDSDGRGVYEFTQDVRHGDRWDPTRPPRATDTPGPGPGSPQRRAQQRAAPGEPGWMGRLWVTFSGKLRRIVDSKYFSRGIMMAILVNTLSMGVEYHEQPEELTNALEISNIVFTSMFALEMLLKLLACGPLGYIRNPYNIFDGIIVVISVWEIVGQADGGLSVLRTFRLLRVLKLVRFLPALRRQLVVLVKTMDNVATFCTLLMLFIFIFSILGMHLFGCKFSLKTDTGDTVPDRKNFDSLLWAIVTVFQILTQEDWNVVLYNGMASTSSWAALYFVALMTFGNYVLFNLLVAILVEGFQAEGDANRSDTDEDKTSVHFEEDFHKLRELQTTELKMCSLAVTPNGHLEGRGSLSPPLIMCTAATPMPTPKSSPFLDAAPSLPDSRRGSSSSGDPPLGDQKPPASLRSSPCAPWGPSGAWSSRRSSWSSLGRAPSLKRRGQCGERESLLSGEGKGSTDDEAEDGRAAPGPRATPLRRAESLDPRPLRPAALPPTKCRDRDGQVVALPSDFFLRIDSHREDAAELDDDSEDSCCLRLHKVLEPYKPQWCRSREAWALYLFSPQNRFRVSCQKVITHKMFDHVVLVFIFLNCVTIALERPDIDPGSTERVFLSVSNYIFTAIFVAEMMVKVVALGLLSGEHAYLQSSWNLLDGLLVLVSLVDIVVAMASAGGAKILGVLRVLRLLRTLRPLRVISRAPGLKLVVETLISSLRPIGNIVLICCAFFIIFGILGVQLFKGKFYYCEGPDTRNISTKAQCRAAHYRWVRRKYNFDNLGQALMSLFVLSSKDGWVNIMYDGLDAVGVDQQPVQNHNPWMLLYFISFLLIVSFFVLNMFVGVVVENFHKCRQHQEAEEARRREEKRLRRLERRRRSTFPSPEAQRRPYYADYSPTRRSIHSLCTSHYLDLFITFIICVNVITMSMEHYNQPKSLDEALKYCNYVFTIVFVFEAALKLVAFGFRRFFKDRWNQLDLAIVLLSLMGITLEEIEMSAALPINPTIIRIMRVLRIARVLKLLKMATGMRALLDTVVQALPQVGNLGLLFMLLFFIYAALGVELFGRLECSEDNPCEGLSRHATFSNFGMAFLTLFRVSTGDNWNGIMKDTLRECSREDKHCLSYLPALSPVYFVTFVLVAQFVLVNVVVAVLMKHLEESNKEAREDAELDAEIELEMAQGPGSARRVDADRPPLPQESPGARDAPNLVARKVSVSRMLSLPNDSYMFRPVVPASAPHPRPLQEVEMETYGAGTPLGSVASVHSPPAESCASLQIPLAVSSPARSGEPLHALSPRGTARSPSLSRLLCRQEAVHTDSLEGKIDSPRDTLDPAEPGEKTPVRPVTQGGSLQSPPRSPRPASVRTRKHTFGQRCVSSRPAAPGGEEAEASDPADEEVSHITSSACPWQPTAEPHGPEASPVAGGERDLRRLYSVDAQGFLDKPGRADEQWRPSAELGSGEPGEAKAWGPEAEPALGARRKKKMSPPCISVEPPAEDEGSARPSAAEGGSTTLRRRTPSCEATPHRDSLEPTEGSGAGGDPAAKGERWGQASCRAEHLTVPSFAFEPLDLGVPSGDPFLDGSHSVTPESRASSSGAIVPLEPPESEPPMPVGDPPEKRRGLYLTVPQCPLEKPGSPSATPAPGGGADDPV
Melanin-concentrating hormone receptor 1, sequence (Q99705 whole entry): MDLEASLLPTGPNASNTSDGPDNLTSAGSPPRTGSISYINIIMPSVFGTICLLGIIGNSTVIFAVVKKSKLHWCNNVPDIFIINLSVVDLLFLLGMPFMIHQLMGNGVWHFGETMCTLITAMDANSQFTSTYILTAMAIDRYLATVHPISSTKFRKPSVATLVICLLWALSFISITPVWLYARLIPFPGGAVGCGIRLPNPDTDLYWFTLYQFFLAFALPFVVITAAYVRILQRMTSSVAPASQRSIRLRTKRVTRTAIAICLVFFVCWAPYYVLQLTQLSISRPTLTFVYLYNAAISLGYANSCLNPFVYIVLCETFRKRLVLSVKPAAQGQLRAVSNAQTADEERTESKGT

SMILES: COC(=O)CN(Cc1cccs1)C(=O)c1cccnc1
- EC50 [1]: > 20 µM (inactive)

SMILES: O=C(O)C(Cc1ccccc1)NC(=S)Nc1ccccc1 (stereo unspecified)
- Ki [2]: 28.8 µM (inactive)

SMILES: CCNC(=O)C1(C)CCCN(Cc2cccc(Oc3ccccc3)c2)C1 (stereo unspecified)
- AC50 [3]: 45.6 µM (active)

SMILES: CCc1c(O)nc(N)nc1Nc1ccccc1Cl
- AC50 [4]: 7.32 µM (active)

SMILES: CC(C)N=C(NC#N)SCc1ccccc1F
- AC50 [5]: 10.8 µM (active)

SMILES: Cc1ccc(-n2ccc(Cl)c(Cl)c2=O)cc1
- IC50 [6]: > 20 µM (inactive)
- IC50 [7]: > 20 µM (inactive)

SMILES: O=C(Cc1coc2ccc3ccccc3c12)NCc1ccccc1
- IC50 [8]: > 100 µM (inactive)

SMILES: Cc1ccc(Cn2nc(C)c(NC(=O)c3cc(-c4ccc5c(c4)OCO5)on3)c2C)cc1
- EC50 [9]: 14 µM (active)
- EC50 [10]: > 120 µM (not active)
- EC50 [11]: 30 µM (active)

SMILES: Cc1ccc2c(c1Cl)NC(C(=O)O)C1CC(Sc3ccccc3[N+](=O)[O-])C(Cl)C21 (stereo unspecified)
- IC50 [12]: 2.96 µM (active)
- IC50 [13]: 2.97 µM (active)
- IC50 [14]: 13.7 µM (active)
- IC50 [15]: 76.9 µM (active)
- IC50 [16]: > 100 µM (not active)
- IC50 [17]: 42.6 µM (active)

SMILES: COc1ccc(NC(=O)c2c(Nc3ccccc3)sc(C(=O)c3ccc(F)cc3)c2N)cc1
- IC50 [18]: > 20 µM (inactive)
- AC50 [19]: 2.46 µM (active)
- EC50 [20]: > 20 µM (inactive)
- EC50 [21]: > 20 µM (inactive)
- IC50 [22]: > 20 µM (inactive)
- IC50 [23]: > 20 µM (inactive)
- AC50 [24]: 1.69 µM (active)
- IC50 [25]: > 20 µM (inactive)
- AC50 [26]: 2.91 µM (active)

SMILES: CCOc1ccc(-n2c(N)c(C(=O)NCc3ccco3)sc2=S)cc1
- IC50 [27]: > 100 µM (inactive)
- IC50 [28]: > 100 µM (inactive)

SMILES: C#CCSc1nc2c(c(=O)[nH]1)CCC2
- IC50 [29]: > 39.8 µM (inactive)
- IC50 [30]: > 39.8 µM (active)

SMILES: N#Cc1cc2c(nc1SCC(=O)Nc1ccc(Cl)cc1)C1CCN2CC1
- EC50 [31]: 2.33 µM (active)
- EC50 [32]: 20.1 µM (active)
- EC50 [33]: 27.9 µM (active)
- EC50 [34]: 2.86 µM (active)
- EC50 [35]: > 120 µM (not active)
- EC50 [36]: 5.38 µM (active)
